How the values were obtained:
Assay in all cases: relative viability (nuclei count vs DMSO), 5 days (fraction); higher = more cells survive
[1] = compound: C1/C(=C\C2=CC=CS2)/C(=O)/C(=C/C3=CC=CS3)/C1
Outline: (§1)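 Following overnight incubation at 37 °C, lung cancer cell lines in 1536-well plates were pinned with five library-drug doses (not always all listed) in √10 steps on vehicle-anchored plates. The cells then spent 5 days without medium change before a combined fix, permeabilisation and Hoechst stain, 4× imaging and MetaXpress nuclear counts. Viability is the treated-to-vehicle ratio of nuclei, taken as the median across plates. Only plates with control CV below 25% and at least one doubling passed.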

TPCA-1 = compound: C1=CC(=CC=C1C2=CC(=C(S2)NC(=O)N)C(=O)N)F [TPCA-1]
Outline: as §1

Lestaurtinib = compound: C[C@]12O[C@H](C[C@]1(O)CO)n1c3ccccc3c3c4c(c5c6ccccc6n2c5c31)CNC4=O [Lestaurtinib]
Outline: as §1

[2] = compound: C[C@]12O[C@H](C[C@]1(O)CO)n1c3ccccc3c3c4c(c5c6ccccc6n2c5c31)CNC4=O [Lestaurtinib] + CC(C)C[C@H](NC(=O)[C@H](Cc1ccccc1)NC(=O)c1cnccn1)B(O)O [Bortezomib] (partner 0.002 µM)
Outline: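 A single step with final 0.05% Triton X-100, 1% formaldehyde and 1 ug/ml Hoechst fixed the cells and stained nuclei 5 days after treatment. Lung cancer cell lines in 1536-well plates had been treated by pin tool the day after seeding with one drug alone or a fixed anchor-drug dose plus five library-drug doses (not always all listed) in √10 steps, and nuclei were counted on 4× images. Relative viability is the ratio of nuclei in treated wells to nuclei in vehicle wells, taken as the median of duplicate plates.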

For UMC-11, the relative viability ([1]; 0.2 µM) was 0.975, the relative viability ([1]; 0.6325 µM) was 0.993 and the relative viability ([1]; 2 µM) was 0.954. It also gave a relative viability ([1]; 6.325 µM) of 0.711, a relative viability ([1]; 20 µM) of 0.941 and a relative viability (TPCA-1; 0.04 µM) of 1.03. For the same cell line, the relative viability (TPCA-1; 0.1265 µM) was 0.87, the relative viability (TPCA-1; 0.4 µM) was 1.03 and the relative viability (TPCA-1; 1.265 µM) was 0.976. The relative viability (TPCA-1; 4 µM) was 0.374, the relative viability (Lestaurtinib; 0.005 µM) was 1.01 and the relative viability (Lestaurtinib; 0.01581 µM) was 0.958. The relative viability (Lestaurtinib; 0.05 µM) was 0.615, the relative viability (Lestaurtinib; 0.1581 µM) was 0.353 and the relative viability (Lestaurtinib; 0.5 µM) was 0.19. It also gave a relative viability ([2]; first compound 0.005 µM) of 0.602, a relative viability ([2]; first compound 0.01581 µM) of 0.621 and a relative viability ([2]; first compound 0.05 µM) of 0.321. The relative viability ([2]; first compound 0.1581 µM) was 0.299 and the relative viability ([2]; first compound 0.5 µM) was 0.171.

Source: the supplement of paper PMC10307832
